Patent US20240009191A1, “METHOD AND COMPOSITION FOR THE TREATMENT OF DISEASE” (DIMERIX BIOSCIENCE PTY LTD, priority 2019, published 2024)

Tests used:
Format in all cases: cell-based
[1] = target: T1, AT1R-CXCR2 heteromer (Homo sapiens, UniProt P25025+P30556); test: BRET Gi coupling, CXCR2/Rluc8, Venus/mGsi and HA-AT1R, pre-treatment with antagonists/inverse agonists; conditions: FIGS. 6-15
T1 sequence (P25025 1-360): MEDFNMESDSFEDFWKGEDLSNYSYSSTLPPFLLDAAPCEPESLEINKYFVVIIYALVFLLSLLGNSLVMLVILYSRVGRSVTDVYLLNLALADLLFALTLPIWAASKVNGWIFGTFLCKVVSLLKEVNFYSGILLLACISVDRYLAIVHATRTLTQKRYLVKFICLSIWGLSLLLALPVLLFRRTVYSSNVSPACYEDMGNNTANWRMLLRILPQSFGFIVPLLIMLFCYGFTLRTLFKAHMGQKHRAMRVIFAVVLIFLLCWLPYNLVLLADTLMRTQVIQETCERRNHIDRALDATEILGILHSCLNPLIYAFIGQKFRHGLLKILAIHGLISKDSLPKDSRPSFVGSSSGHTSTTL
T1 sequence (P30556 1-359): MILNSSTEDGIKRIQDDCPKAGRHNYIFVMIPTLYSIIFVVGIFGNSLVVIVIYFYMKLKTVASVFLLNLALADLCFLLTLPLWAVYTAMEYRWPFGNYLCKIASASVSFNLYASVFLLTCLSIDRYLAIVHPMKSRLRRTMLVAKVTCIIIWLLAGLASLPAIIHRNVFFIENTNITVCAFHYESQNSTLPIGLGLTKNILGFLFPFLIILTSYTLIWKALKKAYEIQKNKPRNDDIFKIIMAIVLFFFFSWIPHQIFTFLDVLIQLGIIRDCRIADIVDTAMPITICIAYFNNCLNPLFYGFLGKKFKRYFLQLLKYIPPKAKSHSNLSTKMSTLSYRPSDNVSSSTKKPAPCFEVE
Procedure: (§1) HEK293FT cells were seeded in 6-well plates at a density of approximately 700,000 cells/well and maintained at 37° C., 5% CO2 in Complete Media (DMEM containing 0.3 mg/ml glutamine, 100 IU/ml penicillin and 100 μg/ml streptomycin (Gibco/Thermo Fisher)) supplemented with 10% fetal calf serum (FCS; Bovogen). Transient transfections were carried out 24 h after seeding using FuGene6™ (Promega) according to manufacturer instructions. 24 h post-transfection, cells were washed with PBS, detached using 0.05% trypsin/0.53 mM EDTA, resuspended in HEPES-buffered phenol red free Complete Media containing 5% FCS and added to a poly-L-lysine-coated white 96-well microplate (Greiner Bio-One). 48 h post-transfection, bioluminescence resonance energy transfer (BRET) assays were carried out following pre-incubation of cells with EnduRen™ (Promega) at a final concentration of 30 μM, at 37° C., 5% CO2 for 2 h. BRET measurements were taken at 37° C. using the LUMlstar™ or CLARIOstar™ (BMG Labtech).
(§2) For antagonist/inverse agonist assays, cells were pre-incubated with EnduRen for 1.5 hours, followed by the addition of vehicle or antagonists/inverse agonists (10 μM) for another 30 minutes.
(§3) The BRET signal observed between interacting proteins is normalized by subtracting the background BRET ratio. […] In the following examples, the second calculation will be used and the signal is described as ligand-induced BRET′. Furthermore, for data shown in FIGS. 4 to 20, all data points in a given set are corrected relative to the final data point prior to agonist treatment, which is fixed to zero. In keys on FIGS. 7 to 20, “>” means “followed by after 50 minutes”, with agonists added at time zero on the x-axes.
(§4) Prior to agonist treatment (added at 0 minutes), a baseline BRET signal was recorded for each of the combinations for 20 minutes. Data were calculated as ligand-induced BRET relative to the ‘vehicle followed by vehicle’ (veh>veh) data set.

[2] = target: T1, AT1R-CXCR2 heteromer; test: BRET trafficking of CXCR2/Rluc8 (Venus/Kras, Rab5, Rab8) with HA-AT1R, pre-treatment with vehicle or antagonists/inverse agonists; conditions: 50 minutes after pre-treatment (10 μM)
Procedure: as §1, §2, §3, §4

[3] = target: T2, AT1R-CXCR2 heteromer (Homo sapiens, UniProt P25025+P30556); test: BRET trafficking of AT1R/Rluc8 (Venus/Kras, Rab5) with unlabelled CXCR2, pre-treatment with vehicle or antagonists/inverse agonists; conditions: 50 minutes after pre-treatment (10 μM)
T2 sequence (P30556 1-359): T1 sequence (P30556 1-359)
T2 sequence (P25025 1-360): T1 sequence (P25025 1-360)
Procedure: as §1, §2, §3, §4

effect of CXCL8 only on CXCR2/Rluc8-Venus/mGsi BRET ([1]; 10 nM CXCL8, 50 minutes after pre-treatment with antagonists/inverse agonists (10 μM)): not being altered | effect of AngII only on CXCR2/Rluc8-Venus/mGsi BRET ([1]; 100 nM AngII, 50 minutes after pre-treatment with antagonists/inverse agonists (10 μM)): completely inhibited | effect of both CXCL8 and AngII combined on CXCR2/Rluc8-Venus/Rab8 BRET ([2]; 10 nM CXCL8 and 100 nM AngII, FIG. 18C, 18E-18H): completely inhibited | effect of AngII on CXCR2/Rluc8-Venus/Kras BRET ([2]; 100 nM AngII only, FIG. 16B, 16D): completely inhibited | effect of AngII on CXCR2/Rluc8-Venus/Rab5 BRET ([2]; 100 nM AngII only, FIG. 17B, 17D): completely inhibited | effect of AngII on CXCR2/Rluc8-Venus/Rab8 BRET ([2]; 100 nM AngII only, FIG. 18B, 18D): completely inhibited | effect of both CXCL8 and AngII combined on AT1R/Rluc8-Venus/Kras BRET ([3]; 10 nM CXCL8 and 100 nM AngII, FIG. 19B-19F): completely inhibited | effect of both CXCL8 and AngII combined on AT1R/Rluc8-Venus/Rab5 BRET ([3]; 10 nM CXCL8 and 100 nM AngII, FIG. 20B-20F): completely inhibited | effect of AngII on AT1R/Rluc8-Venus/Kras BRET ([3]; 100 nM AngII only, FIG. 19A): completely inhibited | effect of AngII on AT1R/Rluc8-Venus/Rab5 BRET ([3]; 100 nM AngII only, FIG. 20A): completely inhibited
Compound: CCCCC(=O)N(Cc1ccc(-c2ccccc2-c2nnn[nH]2)cc1)[C@H](C(=O)O)C(C)C [valsartan]
effect of CXCL8 and AngII combined on CXCR2/Rluc8-Venus/mGsi BRET ([1]; 10 nM CXCL8 and 100 nM AngII, 50 minutes after pre-treatment with antagonists/inverse agonists (10 μM)): indistinguishable from that observed with CXCL8 only | effect of both CXCL8 and AngII combined on CXCR2/Rluc8-Venus/Kras BRET ([2]; 10 nM CXCL8 and 100 nM AngII, FIG. 16C, 16E-16H): indistinguishable from the effect observed with CXCL8 only | effect of both CXCL8 and AngII combined on CXCR2/Rluc8-Venus/Rab5 BRET ([2]; 10 nM CXCL8 and 100 nM AngII, FIG. 17C, 17E-17H): indistinguishable from the effect observed with CXCL8 only
